species on record: Mus musculus; experiment: Compound was tested for abrasion score in mice at a dose of 3.6 nmol/25 g of TTNPB and 28.8 nmol/25 g of the compound; assay type: functional; conditions: not given

Row | Compound | Abrasion score
1 | C/C(=C\c1ccc(C(=O)O)cc1)c1ccc2c(c1)C(C)(C)CCC2(C)C.Cc1ccc(C2=CC(C)(C)Sc3cc4ccc(-c5ccc(C(=O)O)cc5)cc4cc32)cc1 | 0
2 | C/C(=C\c1ccc(C(=O)O)cc1)c1ccc2c(c1)C(C)(C)CCC2(C)C.Cc1ccc(C2=CC(C)(C)Oc3cc4ccc(-c5ccc(C(=O)O)cc5)cc4cc32)cc1 | 0

species on record: Mus musculus; experiment: Compound was tested for abrasion score in mice at a dose of 3.6 nmol/25 g of TTNPB and 7.2 nmol/25 g of the compound; assay type: functional; conditions: not given

Row | Compound | Abrasion score
3 | C/C(=C\c1ccc(C(=O)O)cc1)c1ccc2c(c1)C(C)(C)CCC2(C)C.Cc1ccc(C2=CC(C)(C)Sc3cc4ccc(-c5ccc(C(=O)O)cc5)cc4cc32)cc1 | 0
4 | C/C(=C\c1ccc(C(=O)O)cc1)c1ccc2c(c1)C(C)(C)CCC2(C)C.Cc1ccc(C2=CC(C)(C)Oc3cc4ccc(-c5ccc(C(=O)O)cc5)cc4cc32)cc1 | 1

species on record: Mus musculus; experiment: Compound was tested for flaking score in mice at a dose of 3.6 nmol/25 g of TTNPB and 7.2 nmol/25 g of the compound; assay type: functional; conditions: not given

Row | Compound | Flaking score
5 | C/C(=C\c1ccc(C(=O)O)cc1)c1ccc2c(c1)C(C)(C)CCC2(C)C.Cc1ccc(C2=CC(C)(C)Sc3cc4ccc(-c5ccc(C(=O)O)cc5)cc4cc32)cc1 | 1
6 | C/C(=C\c1ccc(C(=O)O)cc1)c1ccc2c(c1)C(C)(C)CCC2(C)C.Cc1ccc(C2=CC(C)(C)Oc3cc4ccc(-c5ccc(C(=O)O)cc5)cc4cc32)cc1 | 1

species on record: Mus musculus; experiment: Compound was tested for its effect on body weight gain in mice at a dose of 3.6 nmol/25 g of TTNPB and 28.8 nmol/25 g of the compound; assay type: functional; conditions: not given

Row | Compound | Gain [%]
7 | C/C(=C\c1ccc(C(=O)O)cc1)c1ccc2c(c1)C(C)(C)CCC2(C)C.Cc1ccc(C2=CC(C)(C)Sc3cc4ccc(-c5ccc(C(=O)O)cc5)cc4cc32)cc1 | 0
8 | C/C(=C\c1ccc(C(=O)O)cc1)c1ccc2c(c1)C(C)(C)CCC2(C)C.Cc1ccc(C2=CC(C)(C)Oc3cc4ccc(-c5ccc(C(=O)O)cc5)cc4cc32)cc1 | 2

species on record: Mus musculus; experiment: Compound was tested for its effect on body weight gain in mice at a dose of 3.6 nmol/25 g of TTNPB and 7.2 nmol/25 g of the compound; assay type: functional; conditions: not given

Row | Compound | Gain [%]
9 | C/C(=C\c1ccc(C(=O)O)cc1)c1ccc2c(c1)C(C)(C)CCC2(C)C.Cc1ccc(C2=CC(C)(C)Sc3cc4ccc(-c5ccc(C(=O)O)cc5)cc4cc32)cc1 | 5
10 | C/C(=C\c1ccc(C(=O)O)cc1)c1ccc2c(c1)C(C)(C)CCC2(C)C.Cc1ccc(C2=CC(C)(C)Oc3cc4ccc(-c5ccc(C(=O)O)cc5)cc4cc32)cc1 | 3

species on record: Mus musculus; experiment: Compound was tested for cutaneous toxicity score in mice at a dose of 3.6 nmol/25 g of TTNPB and 28.8 nmol/25 g of the compound; assay type: functional; conditions: not given

Row | Compound | Cutaneous toxicology score
11 | C/C(=C\c1ccc(C(=O)O)cc1)c1ccc2c(c1)C(C)(C)CCC2(C)C.Cc1ccc(C2=CC(C)(C)Sc3cc4ccc(-c5ccc(C(=O)O)cc5)cc4cc32)cc1 | 0.7
12 | C/C(=C\c1ccc(C(=O)O)cc1)c1ccc2c(c1)C(C)(C)CCC2(C)C.Cc1ccc(C2=CC(C)(C)Oc3cc4ccc(-c5ccc(C(=O)O)cc5)cc4cc32)cc1 | 1

species on record: Mus musculus; experiment: Compound was tested for cutaneous toxicity score in mice at a dose of 3.6 nmol/25 g of TTNPB and 7.2 nmol/25 g of the compound; assay type: functional; conditions: not given

Row | Compound | Cutaneous toxicology score
13 | C/C(=C\c1ccc(C(=O)O)cc1)c1ccc2c(c1)C(C)(C)CCC2(C)C.Cc1ccc(C2=CC(C)(C)Sc3cc4ccc(-c5ccc(C(=O)O)cc5)cc4cc32)cc1 | 1.4
14 | C/C(=C\c1ccc(C(=O)O)cc1)c1ccc2c(c1)C(C)(C)CCC2(C)C.Cc1ccc(C2=CC(C)(C)Oc3cc4ccc(-c5ccc(C(=O)O)cc5)cc4cc32)cc1 | 1.9

biological target: T1, Retinoic acid receptor gamma (Homo sapiens, UniProt P13631); experiment: Binding affinity of [3H]- RA to baculovirus expressed human Retinoic acid receptor gamma; conditions: not given
T1 sequence (P13631 whole entry): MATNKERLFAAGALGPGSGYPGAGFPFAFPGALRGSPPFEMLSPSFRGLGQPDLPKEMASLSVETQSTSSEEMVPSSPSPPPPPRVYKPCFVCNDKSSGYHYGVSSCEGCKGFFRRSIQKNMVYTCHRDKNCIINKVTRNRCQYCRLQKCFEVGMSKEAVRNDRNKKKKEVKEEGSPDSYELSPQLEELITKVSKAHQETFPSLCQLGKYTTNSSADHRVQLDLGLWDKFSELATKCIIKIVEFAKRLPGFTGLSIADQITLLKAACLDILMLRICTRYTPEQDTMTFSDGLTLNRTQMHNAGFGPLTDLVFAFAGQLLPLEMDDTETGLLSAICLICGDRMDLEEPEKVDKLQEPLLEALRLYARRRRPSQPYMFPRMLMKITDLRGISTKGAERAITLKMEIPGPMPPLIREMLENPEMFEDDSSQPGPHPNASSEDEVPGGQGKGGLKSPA

Row | Kd [nM] | Compound
15 | 11 | Cc1ccc(C2=CCC(C)(C)c3cc4ccc(-c5ccc(C(=O)O)cc5)cc4cc32)s1
16 | 14 | Cc1ccc(C2=CC(C)(C)Oc3cc4ccc(-c5ccc(C(=O)O)cc5)cc4cc32)cc1

biological target: T2, Retinoic acid receptor beta (Homo sapiens, UniProt P10826); experiment: Binding affinity of [3H]- RA to baculovirus expressed human Retinoic acid receptor beta; conditions: not given
T2 sequence (P10826 whole entry): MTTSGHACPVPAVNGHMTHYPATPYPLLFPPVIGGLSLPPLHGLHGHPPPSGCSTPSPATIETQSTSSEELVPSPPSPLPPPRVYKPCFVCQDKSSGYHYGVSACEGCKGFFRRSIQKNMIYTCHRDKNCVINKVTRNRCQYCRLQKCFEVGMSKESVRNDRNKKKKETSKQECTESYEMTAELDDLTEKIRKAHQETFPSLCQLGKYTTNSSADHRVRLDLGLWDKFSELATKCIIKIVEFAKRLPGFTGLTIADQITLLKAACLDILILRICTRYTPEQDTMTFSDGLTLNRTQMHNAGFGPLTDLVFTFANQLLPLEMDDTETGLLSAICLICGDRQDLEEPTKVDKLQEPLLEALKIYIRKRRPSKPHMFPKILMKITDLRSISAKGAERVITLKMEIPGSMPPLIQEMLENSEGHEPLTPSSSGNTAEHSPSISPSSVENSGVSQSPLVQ

Row | Kd [nM] | Compound
17 | 6 | Cc1ccc(C2=CCC(C)(C)c3cc4ccc(-c5ccc(C(=O)O)cc5)cc4cc32)s1
18 | 7 | Cc1ccc(C2=CC(C)(C)Oc3cc4ccc(-c5ccc(C(=O)O)cc5)cc4cc32)cc1

biological target: T1, Retinoic acid receptor gamma; experiment: Antagonistic activity against RAR gamma in transcriptional activation assay with 3.2 nM TTNPB; assay type: functional; conditions: not given

Row | IC50 [nM] | Compound
19 | 2 | Cc1ccc(C2=CCC(C)(C)c3cc4ccc(-c5ccc(C(=O)O)cc5)cc4cc32)s1
20 | 2 | Cc1ccc(C2=CC(C)(C)Oc3cc4ccc(-c5ccc(C(=O)O)cc5)cc4cc32)cc1

biological target: T3, Retinoic acid receptor alpha (Homo sapiens) (UniProt P10276); experiment: Relative inhibition of TTNPB activity vs background activity (100% inhibition) against RAR alpha; assay type: functional; conditions: concentration not given here
T3 sequence (whole entry): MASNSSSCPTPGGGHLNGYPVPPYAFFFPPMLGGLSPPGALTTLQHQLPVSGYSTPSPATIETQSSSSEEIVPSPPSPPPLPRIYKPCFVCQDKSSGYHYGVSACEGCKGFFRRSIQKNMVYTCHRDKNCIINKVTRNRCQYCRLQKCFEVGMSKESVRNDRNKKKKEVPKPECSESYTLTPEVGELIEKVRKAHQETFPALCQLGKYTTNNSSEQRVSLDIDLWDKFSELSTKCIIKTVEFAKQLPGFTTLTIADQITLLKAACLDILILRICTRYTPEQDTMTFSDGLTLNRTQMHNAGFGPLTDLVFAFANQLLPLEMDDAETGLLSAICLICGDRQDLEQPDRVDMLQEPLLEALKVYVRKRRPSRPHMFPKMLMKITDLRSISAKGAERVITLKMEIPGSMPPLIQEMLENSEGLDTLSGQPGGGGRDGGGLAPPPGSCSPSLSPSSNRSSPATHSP

Row | inhibition [%] | Compound
21 | 95 | Cc1ccc(C2=CCC(C)(C)c3cc4ccc(-c5ccc(C(=O)O)cc5)cc4cc32)s1

biological target: T4, Retinoic acid receptor alpha (Homo sapiens, UniProt P10276); experiment: Binding affinity of [3H]- RA to baculovirus expressed human RAR alpha; conditions: not given
T4 sequence (P10276 whole entry): T3 sequence (whole entry)

Row | Kd [nM] | Compound
22 | 15 | Cc1ccc(C2=CCC(C)(C)c3cc4ccc(-c5ccc(C(=O)O)cc5)cc4cc32)s1
23 | 14 | Cc1ccc(C2=CC(C)(C)Oc3cc4ccc(-c5ccc(C(=O)O)cc5)cc4cc32)cc1

biological target: T2, Retinoic acid receptor beta; experiment: Antagonistic activity against RAR beta in transcriptional activation assay with 10 nM TTNPB; assay type: functional; conditions: not given

Row | IC50 [nM] | Compound
24 | 15 | Cc1ccc(C2=CCC(C)(C)c3cc4ccc(-c5ccc(C(=O)O)cc5)cc4cc32)s1
25 | 7.5 | Cc1ccc(C2=CC(C)(C)Oc3cc4ccc(-c5ccc(C(=O)O)cc5)cc4cc32)cc1

biological target: T5, Retinoic acid receptor beta (Homo sapiens) (UniProt P10826); experiment: Relative inhibition of TTNPB activity vs background activity (100% inhibition) against RAR beta; assay type: functional; conditions: concentration not given here
T5 sequence (whole entry): T2 sequence (P10826 whole entry)

Row | inhibition [%] | Compound
26 | 83 | Cc1ccc(C2=CCC(C)(C)c3cc4ccc(-c5ccc(C(=O)O)cc5)cc4cc32)s1

biological target: T6, Retinoic acid receptor gamma (Homo sapiens) (UniProt P13631); experiment: Relative inhibition of TTNPB activity vs background activity(100% inhibition) against RAR gamma; assay type: functional; conditions: concentration not given here
T6 sequence (whole entry): T1 sequence (P13631 whole entry)

Row | inhibition [%] | Compound
27 | 96 | Cc1ccc(C2=CCC(C)(C)c3cc4ccc(-c5ccc(C(=O)O)cc5)cc4cc32)s1

biological target: T4, Retinoic acid receptor alpha; experiment: Antagonistic activity against RAR alpha in transcriptional activation assay with 32 nM TTNPB; assay type: functional; conditions: not given

Row | IC50 [nM] | Compound
28 | 20 | Cc1ccc(C2=CCC(C)(C)c3cc4ccc(-c5ccc(C(=O)O)cc5)cc4cc32)s1
29 | 5.5 | Cc1ccc(C2=CC(C)(C)Oc3cc4ccc(-c5ccc(C(=O)O)cc5)cc4cc32)cc1

species on record: Mus musculus; experiment: Compound was tested for flaking score in mice at a dose of 3.6 nmol/25 g of TTNPB and 28.8 nmol/25 g of the compound; assay type: functional; conditions: not given

Row | Compound | Flaking score
30 | C/C(=C\c1ccc(C(=O)O)cc1)c1ccc2c(c1)C(C)(C)CCC2(C)C.Cc1ccc(C2=CC(C)(C)Sc3cc4ccc(-c5ccc(C(=O)O)cc5)cc4cc32)cc1 | 1
31 | C/C(=C\c1ccc(C(=O)O)cc1)c1ccc2c(c1)C(C)(C)CCC2(C)C.Cc1ccc(C2=CC(C)(C)Oc3cc4ccc(-c5ccc(C(=O)O)cc5)cc4cc32)cc1 | 1
